# Assay results reported in patent publication US20250082630A1, “METHODS OF TREATING BRAIN TUMOURS AND NEUROBLASTOMAS” (AstraZeneca AB, priority 2021, published 2025).
# Like-named read-outs stand apart in the source and are kept apart here.
# Tests used:
# [1] = biological target: PARP5a (Homo sapiens (Human), UniProt O95271); assay: PARP fluorescence anisotropy binding assay, PARP5a
# Procedure: Recombinant PARP5a binding domain was diluted to 160 nM with 50 mM Tris pH 8, 0.001% Triton X100, 10 mM MgCl2, 150 mM NaCl and incubated for four hours with an equivalent volume of 6 nM fluorescent probe diluted with 50 mM Tris pH 8, 0.001% Triton X100, 10 mM MgCl2, 150 mM NaCl. The final DMSO concentration of the probe was kept below 1% (v/v).
# [2] = Determination of Kpuu in rat; assay type: in vivo, Han Wistar rats; settings: intravenous infusion; for Kp uu at 4 h: Han Wistar, rat, brain and plasma (unbound brain-to-plasma ratio), 2 µmols/kg/h; for Rat Kpuu: 4 h, brain/plasma unbound
# Procedure: The fraction unbound was determined using the RED Device.
# Compounds were prepared as 10 mM solutions in DMSO. […] If less than 9 test compounds were included then the addition volume of blank DMSO was added to make up volume to 40 uL.
# Frozen plasma was thawed in a water bath at 37° C. Plasma was then centrifuged for 2 minutes at 4,000 rpm to remove clots and collect supernatant into a fresh tube. The pH of the plasma was checked and only used if within the range of pH 7 to pH 8. 3 μL of the working solution of each cassette was added to 597 μL of blank plasma and vortexed for 5 minutes at 1000 rpm. The final percent volume of organic solvent is 0.5% and the final concentration for test compound was 5 μM. Immediately transfer 50 μL of the spiked plasma suspension to a 96-well plate to act as T=0 control sample. The samples are treated the same as the samples after incubation. The remaining plasma is kept at 37° C. prior to starting the dialysis.
# Place inserts open end up into the wells of the base plate. Add 300 μL of spiked plasma sample into the sample chamber, indicated by the red ring. Add 500 μL of phosphate buffer (pH 7.4) to the buffer chamber. Cover the unit with gas permeable lid and incubate for 18 hours at 37° C. at 300 rpm with 5% CO2 on an orbital shaker in the CO2 incubator. At the end of incubation, remove lid and pipette 50 μL of post-dialysis samples from both buffer and plasma chambers into separated 96-well plate for analysis, respectively.
# Samples were matrix matched by adding 50 μL of blank rat plasma to the buffer samples and an equal volume of PBS to the collected plasma samples and vortexed to mix. 400 μL of acetonitrile containing an appropriate internal standard (IS) was added to precipitate protein and release compound and mixed by vortexing the plate for 10 minutes followed by centrifugation for 30 minutes at 4,000 rpm. 250 μL of the supernatant was transferred to new 96-well plates and centrifuged again (4,000 rpm, 30 minutes). 100 μL of the supernatant was then transferred to new 96-well plates and mixed with 100 μL of distilled water to each sample by vortex for 5 minutes at 1,000 rpm. Samples were analysed by LC-MS/MS and drug concentrations were determined vs a calibration curve produced from spiked blank plasma with a typical range of 1-7500 nM.
# The % unbound was determined as % Unbound=(Conc. buffer chamber/Conc. plasma chamber)×100%. Fraction unbound=% unbound/100.
# The principle for the method for the determination of volume unbound in brain slices has previously been published (Development of a High-Throughput Brain Slice Method for Studying Drug Distribution in the Central Nervous System; Fridén et al; Drug Metabolism and Disposition, 2009, 37 (6) 1226-1233). In brief:
# Compound stock solutions were prepared in DMSO at the concentration of 10 mM. […] If less than 9 test compounds were included, then blank DMSO was added to make up volume to 40 uL. On the day of the experiment 4 ul was diluted in 40 mL ECF buffer to give a 100 nM solution of each test compounds which was then pre-warmed to 37° C. before the start of the incubation.
# To prepare brain slices, rats weighing approximately 300 g were terminally anesthetised with isoflurane by inhalation, the brain carefully removed and immersed in ice-cold oxygenated ECF buffer. The rat brain was transferred to a dish containing ice-cold, 02 supplied ECF buffer and trimmed with razor before gluing to the tray of a microslicer with the brain placed with the back section surface down centrally on the tray. Ice cold ECF buffer was added to harden the glue and wet the brain. The tray was placed in the microslicer and using a suitable cutting speed, 100-400 μm were cut slices until the striatum area appeared. Four to six for each brain, 300 μm thick, coronal slices of striatum areas were cut and placed in ice cold 02 supplied buffer until incubation. Six slices were transferred to the incubation tray containing 40 mL pre warmed (37° C.) cassette mixture. […]
# [3] = biological target: PARP1 (Homo sapiens (Human), UniProt P09874); assay: PARP fluorescence anisotropy binding assay, PARP1
# Sequence of PARP1 (P09874 whole entry): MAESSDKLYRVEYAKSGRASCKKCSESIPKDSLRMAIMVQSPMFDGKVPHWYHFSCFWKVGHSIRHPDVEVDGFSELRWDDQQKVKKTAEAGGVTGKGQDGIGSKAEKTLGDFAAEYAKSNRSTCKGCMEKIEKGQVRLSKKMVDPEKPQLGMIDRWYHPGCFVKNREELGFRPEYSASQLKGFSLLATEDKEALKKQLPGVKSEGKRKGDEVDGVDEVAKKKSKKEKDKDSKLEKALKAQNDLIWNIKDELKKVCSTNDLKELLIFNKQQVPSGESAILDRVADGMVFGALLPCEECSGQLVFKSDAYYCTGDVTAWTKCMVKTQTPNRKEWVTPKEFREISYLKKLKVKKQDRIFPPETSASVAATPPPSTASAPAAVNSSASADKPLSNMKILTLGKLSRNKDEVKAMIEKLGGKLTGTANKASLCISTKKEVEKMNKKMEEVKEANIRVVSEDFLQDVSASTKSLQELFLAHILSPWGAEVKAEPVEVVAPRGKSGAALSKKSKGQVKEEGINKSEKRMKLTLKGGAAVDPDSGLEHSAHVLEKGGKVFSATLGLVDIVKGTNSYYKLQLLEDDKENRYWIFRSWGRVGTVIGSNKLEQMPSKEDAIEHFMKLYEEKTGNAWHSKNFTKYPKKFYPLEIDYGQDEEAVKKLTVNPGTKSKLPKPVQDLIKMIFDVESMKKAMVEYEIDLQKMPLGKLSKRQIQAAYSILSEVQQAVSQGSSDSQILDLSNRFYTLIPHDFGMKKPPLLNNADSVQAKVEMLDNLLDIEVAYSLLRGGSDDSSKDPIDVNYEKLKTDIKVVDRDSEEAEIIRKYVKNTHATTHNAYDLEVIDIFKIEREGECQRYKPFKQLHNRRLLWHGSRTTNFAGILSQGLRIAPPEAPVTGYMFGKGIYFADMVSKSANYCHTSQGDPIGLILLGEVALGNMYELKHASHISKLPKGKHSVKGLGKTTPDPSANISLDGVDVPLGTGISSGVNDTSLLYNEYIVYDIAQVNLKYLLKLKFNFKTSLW
# Procedure: Recombinant full length 6HIS tagged PARP1 protein was diluted to 6 nM with 50 mM Tris pH 8, 0.001% Triton X100, 10 mM MgCl2, 150 mM NaCl and incubated for four hours with an equivalent volume of 2 nM fluorescent probe diluted with 50 mM Tris pH 8, 0.001% Triton X100, 10 mM MgCl2, 150 mM NaCl. The final DMSO concentration of the probe was kept below 1% (v/v).
# [4] = biological target: PARP3 (Homo sapiens (Human), UniProt Q9Y6F1); assay: PARP fluorescence anisotropy binding assay, PARP3
# Sequence of PARP3 (Q9Y6F1 whole entry): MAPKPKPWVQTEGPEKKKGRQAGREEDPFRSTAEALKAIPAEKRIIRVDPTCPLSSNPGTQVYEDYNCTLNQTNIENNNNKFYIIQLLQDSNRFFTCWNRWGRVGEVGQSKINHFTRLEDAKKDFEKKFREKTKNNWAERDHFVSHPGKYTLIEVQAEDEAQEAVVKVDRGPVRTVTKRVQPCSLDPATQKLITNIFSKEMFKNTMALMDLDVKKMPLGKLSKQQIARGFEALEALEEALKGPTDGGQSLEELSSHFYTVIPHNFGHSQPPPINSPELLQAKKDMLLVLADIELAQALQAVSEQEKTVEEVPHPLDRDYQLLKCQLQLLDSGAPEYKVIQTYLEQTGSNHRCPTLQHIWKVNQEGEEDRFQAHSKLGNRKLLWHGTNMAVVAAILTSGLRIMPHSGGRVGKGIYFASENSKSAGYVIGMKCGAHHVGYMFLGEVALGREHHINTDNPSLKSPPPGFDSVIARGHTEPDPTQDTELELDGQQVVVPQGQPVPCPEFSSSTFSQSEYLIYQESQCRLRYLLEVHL
# Procedure: Recombinant full length PARP3 protein was diluted to 100 nM with 50 mM Tris pH 8, 0.001% Triton X100, 10 mM MgCl2, 150 mM NaCl and incubated for four hours with an equivalent volume of 6 nM fluorescent probe diluted with 50 mM Tris pH 8, 0.001% Triton X100, 10 mM MgCl2, 150 mM NaCl. The final DMSO concentration of the probe was kept below 1% (v/v).
# [5] = biological target: PARP6 (Homo sapiens (Human), UniProt Q2NL67); assay: PARP fluorescence anisotropy binding assay, PARP6
# Sequence of PARP6 (Q2NL67 whole entry): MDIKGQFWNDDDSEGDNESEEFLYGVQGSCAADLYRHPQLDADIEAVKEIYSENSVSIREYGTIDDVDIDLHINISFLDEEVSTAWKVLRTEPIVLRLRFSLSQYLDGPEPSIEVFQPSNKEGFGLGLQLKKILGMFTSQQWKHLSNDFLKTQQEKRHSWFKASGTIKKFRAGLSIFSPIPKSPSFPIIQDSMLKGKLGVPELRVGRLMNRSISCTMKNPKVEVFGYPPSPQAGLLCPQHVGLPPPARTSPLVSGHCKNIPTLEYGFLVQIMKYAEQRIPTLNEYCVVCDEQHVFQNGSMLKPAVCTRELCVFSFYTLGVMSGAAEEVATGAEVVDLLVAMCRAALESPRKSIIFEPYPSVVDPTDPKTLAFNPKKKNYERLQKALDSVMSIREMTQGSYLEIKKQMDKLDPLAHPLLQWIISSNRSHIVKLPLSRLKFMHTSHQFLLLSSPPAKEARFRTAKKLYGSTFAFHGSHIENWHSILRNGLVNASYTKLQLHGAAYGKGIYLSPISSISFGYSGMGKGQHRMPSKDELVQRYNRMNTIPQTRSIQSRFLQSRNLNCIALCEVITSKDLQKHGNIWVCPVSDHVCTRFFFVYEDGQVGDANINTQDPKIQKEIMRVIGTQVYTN
# Procedure: (§1) Recombinant full length GST tagged PARP6 protein was diluted to 160 nM with 50 mM Tris pH 8, 0.001% Triton X100, 10 mM MgCl2, 150 mM NaCl and incubated for four hours with an equivalent volume of 6 nM fluorescent probe diluted with 50 mM Tris pH 8, 0.001% Triton X100, 10 mM MgCI2, 150 mM NaCl. The final DMSO concentration of the probe was kept below 1% (v/v).
# Fluorescence anisotropy of the probe when bound to the proteins was measured using a BMG Pherastar FSX® in the presence of test compounds or solvent control and the effect on anisotropy determined. % inhibition values for different test compound concentrations were calculated and fitted to a four parameter logistic plot in order to determine the IC50 value. Where necessary, the compound K, can be determined from the IC50 value using a Munson Rodbard equation defined in Anal Biochem. 1980 Sep. 1; 107(1):220-39 and is based on the known KD of the probe binding to the relevant PARP protein
# [6] = system: MDR1 and BCRP; assay: In vitro human transporter efflux (MDCK-MDR1-BCRP); settings: human, pH 7.4
# Procedure: MDCKII cells expressing MDR1 and BCRP were seeded onto polyethylene membranes in 96-well Transwell insert systems at a density to form a confluent cell monolayer. […] The final percent volume of the organic solvent was less than 1%. Permeation of the test compounds from A to B direction and from B to A direction was determined over a 90-min incubation at 37° C. and 5% CO2 with a relative humidity of 95%. At the end of the incubation, samples from the apical and basolateral side were taken and then precipitated with cold acetonitrile containing internal standard. After centrifugation at 4000 rpm, the supernatant was diluted with 0.1% formic acid aqueous solution and quantified by LC-MS/MS. The integrity of the cell monolayers was confirmed by using the marker Lucifer yellow.
# The permeability coefficient (1×10-6 cm/s) was calculated using the following equation
# (1) The Efflux Ratio was Calculated Using the Following Equation
# Efflux ratio=Papp(B to A)/Papp(A to B)
# (2) where dCr/dt is the cumulative concentration of the compound in the receiver chamber as a function of time (in μM/s); Vr is the solution volume in the receiver chamber (0.1 ml on the apical side and 0.3 ml on the basolateral side); A is the surface area for the transport, that is, 0.11 cm2 for the area of the monolayer; and C0 is the initial concentration in the donor chamber (in μM).
# [7] = biological target: PARP2 (Homo sapiens (Human), UniProt Q9UGN5); assay: PARP fluorescence anisotropy binding assay, PARP2
# Sequence of PARP2 (Q9UGN5 whole entry): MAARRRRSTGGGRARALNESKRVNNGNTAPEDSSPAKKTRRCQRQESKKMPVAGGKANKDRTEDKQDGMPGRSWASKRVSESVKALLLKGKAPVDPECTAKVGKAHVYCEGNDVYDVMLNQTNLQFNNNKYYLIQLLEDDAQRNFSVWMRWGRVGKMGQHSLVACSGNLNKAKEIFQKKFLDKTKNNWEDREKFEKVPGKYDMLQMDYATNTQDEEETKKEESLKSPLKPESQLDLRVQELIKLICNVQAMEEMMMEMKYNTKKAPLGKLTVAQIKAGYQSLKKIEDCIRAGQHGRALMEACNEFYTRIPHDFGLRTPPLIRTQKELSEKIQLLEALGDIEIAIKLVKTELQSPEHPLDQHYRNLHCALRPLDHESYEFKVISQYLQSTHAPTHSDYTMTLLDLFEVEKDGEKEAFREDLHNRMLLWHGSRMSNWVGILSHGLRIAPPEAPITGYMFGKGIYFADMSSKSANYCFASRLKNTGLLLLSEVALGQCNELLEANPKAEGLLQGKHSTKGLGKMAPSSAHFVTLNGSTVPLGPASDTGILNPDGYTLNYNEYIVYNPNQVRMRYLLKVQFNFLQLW
# Procedure: as §1, with “PARP2” for “GST tagged PARP6”, “6” for “160”, “2” for “6”, “MgCl2,” for “MgCI2,”
# Fluorescence anisotropy of the probe when bound to the proteins was measured using a BMG Pherastar FSX® in the presence of test compounds or solvent control and the effect on anisotropy determined. % inhibition values for different test compound concentrations were calculated and fitted to a four parameter logistic plot in order to determine the IC50 value.
# [8] = biological target: hERG (Homo sapiens (Human), UniProt Q12809); assay: hERG IC50
# Sequence of hERG (Q12809 whole entry): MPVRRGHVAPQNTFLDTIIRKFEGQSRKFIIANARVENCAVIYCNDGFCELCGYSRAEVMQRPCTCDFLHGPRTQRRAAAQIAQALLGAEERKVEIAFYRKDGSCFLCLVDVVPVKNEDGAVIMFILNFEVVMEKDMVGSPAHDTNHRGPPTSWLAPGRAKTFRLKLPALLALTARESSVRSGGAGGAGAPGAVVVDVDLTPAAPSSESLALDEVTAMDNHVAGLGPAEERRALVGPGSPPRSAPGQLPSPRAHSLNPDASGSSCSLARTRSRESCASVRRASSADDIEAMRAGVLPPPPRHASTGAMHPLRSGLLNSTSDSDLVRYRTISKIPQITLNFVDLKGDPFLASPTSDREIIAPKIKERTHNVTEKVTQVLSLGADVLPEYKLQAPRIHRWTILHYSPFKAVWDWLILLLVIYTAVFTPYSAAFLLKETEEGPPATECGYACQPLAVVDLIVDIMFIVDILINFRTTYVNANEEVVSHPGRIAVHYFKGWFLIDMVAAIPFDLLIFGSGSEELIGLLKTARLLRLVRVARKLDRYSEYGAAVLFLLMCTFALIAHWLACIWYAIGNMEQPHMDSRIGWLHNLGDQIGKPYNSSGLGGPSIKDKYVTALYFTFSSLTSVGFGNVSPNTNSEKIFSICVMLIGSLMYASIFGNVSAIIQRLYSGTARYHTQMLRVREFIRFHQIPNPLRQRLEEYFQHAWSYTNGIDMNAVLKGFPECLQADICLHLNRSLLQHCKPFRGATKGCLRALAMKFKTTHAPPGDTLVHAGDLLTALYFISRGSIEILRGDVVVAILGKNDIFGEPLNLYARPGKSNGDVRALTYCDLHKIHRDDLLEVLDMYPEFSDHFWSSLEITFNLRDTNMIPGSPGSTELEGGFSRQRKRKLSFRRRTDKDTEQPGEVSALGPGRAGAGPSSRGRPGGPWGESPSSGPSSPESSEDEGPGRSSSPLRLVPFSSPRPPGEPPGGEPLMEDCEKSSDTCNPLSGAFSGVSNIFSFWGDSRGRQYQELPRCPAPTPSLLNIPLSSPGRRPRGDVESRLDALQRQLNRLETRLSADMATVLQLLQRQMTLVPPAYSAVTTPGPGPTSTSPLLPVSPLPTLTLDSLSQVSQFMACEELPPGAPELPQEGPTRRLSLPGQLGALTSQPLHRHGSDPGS
# [9] = system: BRCA2 (−/−) DLD1 cells; assay: PARP proliferation assay (7 day compound dosing), BRCA2 (−/−) DLD1; assay type: cell-based; settings: Homo sapiens, DLD-1, 168 h, read-out: BRCA2 −/− DLD-1 prolif. 7 d IC50
# Procedure: DLD1 and BRCA2 (−/−) DLD1 cells were harvested to a density of 5000 cells/ml and 2.5E4 cells/ml respectively in complete media, 40 μL/well seeded into 384-well plates (Greiner, Kremsmunster, Austria; 781090) using a Multidrop Combi then incubated at 37° C., 5% CO2 overnight. Next day (Day 1) using a Multidrop Combi add sytox green (5ul, 2 uM) and saponin (10 ul, 0.25% stock) to a day 0 plate, seal the plate using a black adhesive lid and incubate for >3 h at it. Cells were imaged using Cell Insight (Thermo Fisher) fitted with a 4x objective. Test compounds are added using an Echo 555 and placed in incubator maintained at 37° C., 5% CO2 and incubated for 7 days. On Day 8 add sytox green (5ul, 2 uM) and then saponin (10 ul, 0.25% stock) to plates, seal the plate using a black adhesive lid and incubate for >3 h at it. Read all cells on the Cell Insight with 4× Objective. The rate of proliferation is determined in Genedata by assessing the total cell number output from the Cell Insight for Day 0 and Day 8 plates.
# [10] = system: U87MG xenograft; assay type: in vivo, female Nude mice
# Procedure: U87MG cells (2.5 million in serum-free MEM medium) were implanted subcutaneously (SC) into the dorsal flank of female Nude mice (weight greater than 18 g). Tumours were measured (length x width) two times weekly by bilateral Vernier calliper measurements and tumour volume was calculated using elliptical formula (π/6×width×width×length). Animal bodyweight and tumour condition were monitored throughout the study. Mice were randomised into treatment groups when mean tumour volume reached approximately 0.2 cm^3.
# Animals were treated orally (PO) from the day after the randomisation. Control animals were treated with vehicle (water/methane sulfonic acid (MSA) pH3-3.2) once daily for 10 days (QD×10). PARP inhibitor in water/MSA pH3-3.2 was dosed in the monotherapy and combination groups at 3 mg/kg QD×10 or QD×33, respectively. Temozolomide (TMZ) in OraPlus Perrigo was dosed in the monotherapy group at 25 mg/kg QD on days 1-5 and 29-33, and in monotherapy and combination group at 6.25 mg/kg QD on days 1-5 and 29-33.
# Tumour growth inhibition from start of treatment was assessed by comparison of the mean change in tumour volume (TV) of the control and treated groups and represented as percent tumour growth inhibition (TGI, when tumour volume (TV) >starting TV) or tumour regression (reg, when TV<starting TV). Statistical significance was evaluated using a one-tailed t test. Statistical significance is indicated as follows: *p:0.05, **p:0.01, ***p:0.001.
# [11] = TMZ 6.25 mg/kg QD on days 1-5 and 29-33, PO
# [12] = TMZ 25 mg/kg QD on days 1-5 and 29-33, PO
# Sequence of PARP5a (O95271 1112-1317): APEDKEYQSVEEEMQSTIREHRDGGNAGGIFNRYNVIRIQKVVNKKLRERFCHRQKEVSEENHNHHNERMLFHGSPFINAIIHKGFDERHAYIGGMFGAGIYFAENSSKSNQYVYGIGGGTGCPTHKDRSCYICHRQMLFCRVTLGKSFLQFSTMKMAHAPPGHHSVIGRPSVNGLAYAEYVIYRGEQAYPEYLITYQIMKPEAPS
IC50 [1] [µM],Kp uu at 4 h [2],IC50 [3] [µM],IC50 [4] [µM],IC50 [5] [µM],efflux ratio at 90 min [6],IC50 [7] [µM],Rat Kpuu [2],IC50 [9] [µM],SMILES,IC50 [8] [µM],"tumour regression [10, 11] [%]","tumours regressed [10, 11]","tumour regression [10, 12] [%]","tumours regressed [10, 12]"
> 100,0.62,0.005,> 100,> 100,0.8,> 67,,,"CCc1nc2ccc(CN3CCN(c4ccc(C(=O)NC)nc4C)CC3)c(F)c2[nH]c1=O [Example 23, 5-[4-[(2-ethyl-5-fluoro-3-oxo-4H-quinoxalin-6-yl)methyl]piperazin-1-yl]-N,6-dimethyl-pyridine-2-carboxamide]",,,,,
> 100,,,> 100,> 100,,,0.43,,"CCc1nc2ccc(CN3CCN(c4ccc(C(=O)NC)nc4F)CC3)c(F)c2[nH]c1=O [Example 27, 5-[4-[(2-ethyl-5-fluoro-3-oxo-4H-quinoxalin-6-yl)methyl]piperazin-1-yl]-6-fluoro-N-methyl-pyridine-2-carboxamide]",,,,,
> 100,0.33,0.015,> 100,> 100,0.7,> 100,,,"CCc1nc2ccc(CN3CCN(c4ccc(C(=O)NC)nc4)CC3)c(F)c2[nH]c1=O [Example 29, 5-[4-[(2-ethyl-5-fluoro-3-oxo-4H-quinoxalin-6-yl)methyl]piperazin-1-yl]-N-methyl-pyridine-2-carboxamide]",,,,,
> 100,,0.007,> 100,> 100,1.6,> 100,0.19,0.007,"CNC(=O)c1ccc(N2CCN(Cc3ccc4nc(C)c(=O)[nH]c4c3F)CC2)c(C)n1 [Example 31, 5-[4-[(5-fluoro-2-methyl-3-oxo-4H-quinoxalin-6-yl)methyl]piperazin-1-yl]-N,6-dimethyl-pyridine-2-carboxamide]",,,,,
,,0.026,,,,> 100,,,"CNC(=O)c1ccc(N2CCN(Cc3ccc4ncc(=O)[nH]c4c3F)CC2)c(Cl)n1 [Example 34, 6-chloro-5-[4-[(5-fluoro-3-oxo-4H-quinoxalin-6-yl)methyl]piperazin-1-yl]-N-methyl-pyridine-2-carboxamide]",29,,,,

# More lines, now with the values behind:
SMILES,IC50 [1] [µM],Kp uu at 4 h [2],IC50 [3] [µM],IC50 [4] [µM],IC50 [5] [µM],efflux ratio at 90 min [6],IC50 [7] [µM],Rat Kpuu [2],IC50 [9] [µM],IC50 [8] [µM],"tumour regression [10, 11] [%]","tumours regressed [10, 11]","tumour regression [10, 12] [%]","tumours regressed [10, 12]"
"CNC(=O)c1ccc(N2CCN(Cc3ccc4nc(C)c(=O)[nH]c4c3C)CC2)c(F)n1 [Example 1, 5-[4-[(2,5-dimethyl-3-oxo-4H-quinoxalin-6-yl)methyl]piperazin-1-yl]-6-fluoro-N-methyl-pyridine-2-carboxamide]",> 100,0.07,0.004,> 100,> 100,0.7,> 70,,,,,,,
"CNC(=O)c1ccc(N2CCN(Cc3ccc4nc(C)c(=O)[nH]c4c3C)CC2)c(C)n1 [Example 4, 5-[4-[(2,5-dimethyl-3-oxo-4H-quinoxalin-6-yl)methyl]piperazin-1-yl]-N,6-dimethyl-pyridine-2-carboxamide]",> 100,0.13,0.005,78,> 100,0.8,> 83,,,,,,,
"CNC(=O)c1ccc(N2CCN(Cc3ccc4nc(C)c(=O)[nH]c4c3Cl)CC2)c(C)n1 [Example 18, 5-[4-[(5-chloro-2-methyl-3-oxo-4H-quinoxalin-6-yl)methyl]piperazin-1-yl]-N,6-dimethyl-pyridine-2-carboxamide]",,,0.005,,,,,,,14,,,,
"Cn1nnc2c(C(N)=O)ncn2c1=O [TMZ, Temozolomide]",,,,,,,,,,,28,2/8,92,7/8
